In EP4635500A1, “THERAPEUTIC AGENT FOR BACTERIAL INFECTION” (Sumitomo Pharma Co., Ltd., priority 2022, dated 2024) one finds MIC50 and MIC90 data, which are given here for 1 substance.

The test system of the experiment is Serine-carbapenemase producing strains (N = 19). The experiment in a line: MIC50/MIC90 for carbapenemase-producing isolates (Example 5, Table 6). Format: cell-based. More on the design: unit not given here. The settings on record: Serine-carbapenemase (N = 19): KPC-2 (7), KPC-3 (8), KPC-38 (1), OXA-48 (2), OXA-181 (1).

With colistin, the MIC50 was 0.25 and the MIC90 amounted to 2.
